From patent publication US11596639B2, “Substituted indole Mcl-1 inhibitors” (Vanderbilt University, priority 2016, dated 2023)
Read-outs that look alike come from different tables or passages of the source.

Columns and labels:
Mcl-1 = Mcl-1 (Homo sapiens (Human), UniProt Q07820); assay: Fluorescence polarization anisotropy (FPA) competition assay, FITC-Bak or FITC-Bim BH3 peptide; format: binding; settings: read-out: Ki for Inhibition of Mcl-1 by FPA assay
[1] = test system: H929 human cancer cell lines; assay: Cellular viability / proliferation (Cell TiterGlo, 72 h); format: cell-based
In short: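 1,000 cells/well, 10% FBS medium; compound added at 24 h, 2-fold dilutions from 50 μM top, DMSO <1% final. 72 h exposure, CellTiterGlo 30 min RT dark, luminescence read. IC50 by 4-parameter fit.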

[2] = Homo sapiens, NCI-H929, 72 h, read-out: GI50 on cellular proliferation of H929 human cancer cell lines, H929 cells, 72 h, Cell TiterGlo, 10% FBS
[3] = read-out: GI50 on cellular proliferation of H929 human cancer cell lines, H929 cells, 72 h, Cell TiterGlo, 10% FBS

Sequence of Mcl-1 (Q07820 172-327): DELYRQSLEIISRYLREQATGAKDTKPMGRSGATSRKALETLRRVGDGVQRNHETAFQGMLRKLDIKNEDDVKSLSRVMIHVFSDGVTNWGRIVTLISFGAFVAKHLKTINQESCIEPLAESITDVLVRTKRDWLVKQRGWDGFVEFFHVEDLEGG

| Structure (SMILES) | Ki (Mcl-1) | GI50 [1, 2] | GI50 [1, 3] |
| --- | --- | --- | --- |
| Cc1cc(OCCCc2c3n(c4c(-c5c(C)nn(C)c5C)c(Cl)ccc24)CCCN(c2cc(C(=O)O)cc4c2cnn4C)C3=O)cc(C)c1Cl [Example 45, 4-[8-chloro-11-[3-(4-chloro-3,5-dimethyl-phenoxy)propyl]-1-oxo-7-(1,3,5-trimethylpyrazol-4-yl)-4,5-dihydro-3H-[1,4]diazepino[1,2-a]indol-2-yl]-1-methyl-indazole-6-carboxylic acid] | 1.7 nM | 3800 nM | – |
| Cc1cc(OCCCc2c3n(c4c(-c5c(C)nn(C)c5C)c(Cl)ccc24)[C@H](C)CN(c2ccc4c(c2)c(C(=O)O)nn4C)C3=O)cc(C)c1Cl [Example 116, (R)-5-(7-Chloro-10-(3-(4-chloro-3,5-dimethylphenoxy)propyl)-4-methyl-1-oxo-6-(1,3,5-trimethyl-1H-pyrazol-4-yl)-3,4-dihydropyrazino[1,2-a]indol-2(1H)-yl)-1-methyl-1H-indazole-3-carboxylic acid] | < 1 nM | 9700 nM | – |
| COc1ccc(N2C[C@@H](C)n3c(c(CCCOc4cc(C)c(Cl)c(C)c4)c4ccc(Cl)c(-c5c(C)nn(C)c5C)c43)C2=O)c2c1cc(C(=O)O)n2C [Example 192, (R)-7-(7-Chloro-10-(3-(4-chloro-3,5-dimethylphenoxy)propyl)-4-methyl-1-oxo-6-(1,3,5-trimethyl-1H-pyrazol-4-yl)-3,4-dihydropyrazino[1,2-a]indol-2(1H)-yl)-4-methoxy-1-methyl-1H-indole-2-carboxylic acid] | < 1 nM | < 200 nM | – |
| Cc1cc(OCCCc2c3n(c4c(-c5c(C)nn(C)c5C)c(Cl)ccc24)[C@H](C)CN(c2cccc4cc5n(c24)CCNC5=O)C3=O)cc(C)c1Cl [Example 434, (R)-7-Chloro-10-(3-(4-chloro-3,5-dimethylphenoxy)propyl)-4-methyl-6-(1,3,5-trimethyl-1H-pyrazol-4-yl)-3,3′,4,4′-tetrahydro-1H-[2,6′-bipyrazino[1,2-a]indole]-1,1′(2′H)-dione] | 5.5 nM | 890 nM | – |
| Cc1cc(OCCCc2c3n(c4c(-c5c(C)nn(C)c5C)c(Cl)ccc24)[C@H](C)CN(c2cccc4cc(C(=O)O)n(CCN(C)C)c24)C3=O)cc(C)c1Cl [Example 322, (R)-7-(7-Chloro-10-(3-(4-chloro-3,5-dimethylphenoxy)propyl)-4-methyl-1-oxo-6-(1,3,5-trimethyl-1H-pyrazol-4-yl)-3,4-dihydropyrazino[1,2-a]indol-2(1H)-yl)-1-(2-(dimethylamino)ethyl)-1H-indole-2-carboxylic acid] | 1.7 nM | 1800 nM | – |
| Cc1cc(OCCCc2c3n(c4c(-c5c(C)nn(C)c5C)c(Cl)ccc24)[C@H](C)CN(c2cn(C(C)C)c4ccc(C(=O)O)cc24)C3=O)cc(C)c1Cl [Example 166, (R)-3-(7-Chloro-10-(3-(4-chloro-3,5-dimethylphenoxy)propyl)-4-methyl-1-oxo-6-(1,3,5-trimethyl-1H-pyrazol-4-yl)-3,4-dihydropyrazino[1,2-a]indol-2(1H)-yl)-1-isopropyl-1H-indole-5-carboxylic acid] | < 1 nM | 1400 nM | – |
| COc1ccc(N2C[C@@H](C)n3c(c(CCCOc4cc(C)c(Cl)c(C)c4)c4ccc(Cl)c(-c5c(C)nn(C)c5C)c43)C2=O)c2c1cc(C(=O)O)n2Cc1ccccn1 [Example 313, 7-[(4R)-7-chloro-10-[3-(4-chloro-3,5-dimethyl-phenoxy)propyl]-4-methyl-1-oxo-6-(1,3,5-trimethylpyrazol-4-yl)-3,4-dihydropyrazino[1,2-a]indol-2-yl]-4-methoxy-1-(2-pyridylmethyl)indole-2-carboxylic acid] | < 1 nM | < 200 nM | – |
| CCn1nc(C(=O)O)c2cccc(N3C[C@@H](C)n4c(c(CCCOc5cc(C)c(Cl)c(C)c5)c5ccc(Cl)c(-c6c(C)nn(C)c6C)c54)C3=O)c21 [Example 118, (R)-7-(7-chloro-10-(3-(4-chloro-3,5-dimethylphenoxy)propyl)-4-methyl-1-oxo-6-(1,3,5-trimethyl-1H-pyrazol-4-yl)-3,4-dihydropyrazino[1,2-a]indol-2(1H)-yl)-1-ethyl-1H-indazole-3-carboxylic acid] | < 1 nM | 820 nM | – |
| Cc1cc(OCCCc2c3n(c4c(-c5c(C)nn(C)c5C)c(Cl)ccc24)[C@H](C)CN(c2cccc4c2cc(C(=O)O)n4C(C)C)C3=O)cc(C)c1Cl [Example 197, (R)-4-(7-Chloro-10-(3-(4-chloro-3,5-dimethylphenoxy)propyl)-4-methyl-1-oxo-6-(1,3,5-trimethyl-1H-pyrazol-4-yl)-3,4-dihydropyrazino[1,2-a]indol-2(1H)-yl)-1-isopropyl-1H-indole-2-carboxylic acid] | < 1 nM | 670 nM | – |
| Cc1cc(OCCCc2c3n(c4c(-c5c(C)ncnc5C)c(Cl)ccc24)[C@H](C)CN(c2cn(C)c4ccc(C(N)=O)cc24)C3=O)cc(C)c1Cl [Example 269, 3-[(4R)-7-chloro-10-[3-(4-chloro-3,5-dimethyl-phenoxy)propyl]-6-(4,6-dimethylpyrimidin-5-yl)-4-methyl-1-oxo-3,4-dihydropyrazino[1,2-a]indol-2-yl]-1-methyl-indole-5-carboxamide] | 7.4 nM | 760 nM | – |
| Cc1cc(OCCCc2c3n(c4c(-c5c(C)nn(C)c5C)c(Cl)ccc24)[C@H](C)CN(c2cccc4cc(C(N)=O)n(C)c24)C3=O)cc(C)c1Cl [Example 377, (R)-7-(7-chloro-10-(3-(4-chloro-3,5-dimethylphenoxy)propyl)-4-methyl-1-oxo-6-(1,3,5-trimethyl-1H-pyrazol-4-yl)-3,4-dihydropyrazino[1,2-a]indol-2(1H)-yl)-1-methyl-1H-indole-2-carboxamide] | 4.9 nM | – | 630 nM |
| COc1ccc(N2C[C@@H](C)n3c(c(CCCOc4cc(C)c(Cl)c(C)c4)c4ccc(Cl)c(-c5c(C)ncnc5C)c43)C2=O)c2c1cc(C(=O)O)n2Cc1ccccn1 [Example 302, 7-[(4R)-7-chloro-10-[3-(4-chloro-3,5-dimethyl-phenoxy)propyl]-6-(4,6-dimethylpyrimidin-5-yl)-4-methyl-1-oxo-3,4-dihydropyrazino[1,2-a]indol-2-yl]-4-methoxy-1-(2-pyridylmethyl)indole-2-carboxylic acid] | < 1 nM | < 200 nM | – |
| Cc1cc(OCCCc2c3n(c4c(-c5c(C)nn(C)c5C)c(Cl)ccc24)[C@H](C)CN(c2cn(C)c4ccc(-c5ncn(CC6CC6)n5)cc24)C3=O)cc(C)c1Cl [Example 462, (R)-7-Chloro-10-(3-(4-chloro-3,5-dimethylphenoxy)propyl)-2-(5-(1-(cyclopropylmethyl)-1H-1,2,4-triazol-3-yl)-1-methyl-1H-indol-3-yl)-4-methyl-6-(1,3,5-trimethyl-1H-pyrazol-4-yl)-3,4-dihydropyrazino[1,2-a]indol-1(2H)-one] | 2 nM | 990 nM | – |
| Cc1cc(OCCCc2c3n(c4c(-c5c(C)nn(C)c5C)c(Cl)ccc24)[C@H](C)CN(c2cn(COCC[Si](C)(C)C)c4ccc(C(=O)O)cc24)C3=O)cc(C)c1Cl [Example 231, (R)-3-(7-Chloro-10-(3-(4-chloro-3,5-dimethylphenoxy)propyl)-4-methyl-1-oxo-6-(1,3,5-trimethyl-1H-pyrazol-4-yl)-3,4-dihydropyrazino[1,2-a]indol-2(1H)-yl)-1-((2-(trimethylsilyl)ethoxy)methyl)-1H-indole-5-carboxylic acid] | 1.2 nM | 2700 nM | – |
| Cc1cc(OCCCc2c3n(c4c(-c5c(C)nn(C)c5C)c(Cl)ccc24)CCCN(c2cc(C(=O)O)c4nnn(C)c4c2)C3=O)cc(C)c1Cl [Example 4, 6-[8-Chloro-11-[3-(4-chloro-3,5-dimethyl-phenoxy)propyl]-1-oxo-7-(1,3,5-trimethylpyrazol-4-yl)-4,5-dihydro-3H-[1,4]diazepino[1,2-a]indol-2-yl]-1-methyl-benzotriazole-4-carboxylic acid] | 3.3 nM | 8700 nM | – |
| Cc1cc(OCCCc2c3n(c4c(-c5c(C)nn(CC6CCOCC6)c5C)c(Cl)ccc24)[C@H](C)CN(c2cccc4c(C(=O)O)cn(C)c24)C3=O)cc(C)c1Cl [Example 128, (R)-7-(7-chloro-10-(3-(4-chloro-3,5-dimethylphenoxy)propyl)-6-(3,5-dimethyl-1-((tetrahydro-2H-pyran-4-yl)methyl)-1H-pyrazol-4-yl)-4-methyl-1-oxo-3,4-dihydropyrazino[1,2-a]indol-2(1H)-yl)-1-methyl-1H-indole-3-carboxylic acid] | < 1 nM | 410 nM | – |
| Cc1cc(OCCCc2c3n(c4c(-c5c(C)nn(CCN6CCCC6)c5C)c(Cl)ccc24)[C@H](C)CN(c2cccc4c2cc(C(=O)O)n4C)C3=O)cc(C)c1Cl [Example 318, (R)-4-(7-Chloro-10-(3-(4-chloro-3,5-dimethylphenoxy)propyl)-6-(3,5-dimethyl-1-(2-(pyrrolidin-1-yl)ethyl)-1H-pyrazol-4-yl)-4-methyl-1-oxo-3,4-dihydropyrazino[1,2-a]indol-2(1H)-yl)-1-methyl-1H-indole-2-carboxylic acid] | 1.5 nM | 820 nM | – |
| COC(=O)c1ccc2c(c1)c(N1C[C@@H](C)n3c(c(CCCOc4cc(C)c(Cl)c(C)c4)c4ccc(Cl)c(-c5c(C)nn(C)c5C)c43)C1=O)cn2C (single isomer, unassigned) [Example 207] | < 1 nM | – | 750 nM |
| Cc1cc(OCCCc2c3n(c4c(-c5c(C)nn(C)c5C)c(Cl)ccc24)[C@H](C)CN(c2cn(C)c4ccc(C#N)cc24)C3=O)cc(C)c1Cl [Example 208, (R)-3-(7-Chloro-10-(3-(4-chloro-3,5-dimethylphenoxy)propyl)-4-methyl-1-oxo-6-(1,3,5-trimethyl-1H-pyrazol-4-yl)-3,4-dihydropyrazino[1,2-a]indol-2(1H)-yl)-1-methyl-1H-indole-5-carbonitrile] | < 1 nM | 1600 nM | – |
